Experimental data as given in patent EP0414895A1, “OROTATE OF $g(a)-AMINO-$g(b)-PHENYL-BUTYRIC ACID” (NAUCHNO-PROIZVODSTVENNOE OBIEDINENIE "BIOLAR", priority 1989, dated 1990).
Where a name gives a salt, the structure may show the parent alone.

What was measured:
Mäuse [1] = assay: Habituation study: electric pain stimulation thresholds on repeated dosing; format: in vivo
Source text: (§1) In einer Kammer von 20 x 20 x 25 cm Ausmass, deren Boden - ein Metallgitter aus Stangen darstellt, wurde ein Paar Tiere untergebracht (männliche Mäuse) und es wurde der Wechselstrom durchgelassen. Die Spannung wurde dosenartig auf 5 V solange erhöht, bis der Strom das Piepsen (die Schwelle der emotionellen Reaktivität) und die Schlägerei der Tiere (die Schwelle der Aggressivität) auslöste. Jede Spannungsgrösse wurde innerhalb von 5 sec zweimal in einem Zeitabstand von 20 bis 50 Sekunden aufrechterhalten. Die Kontrolle des Benehmens der Tiere begann man I0 Minuten nach der Einführung der oben erwähnten Verbindungen. Die Angaben sind in Tabellen 3, 4 angeführt.
(§2) Zur Untersuchung der Gewöhnung an die Wirkung der erfindungsgemässen Verbindung wurde die Dynamik der Benehmungseffekte an Mäusen beiderlei Geschlechts untersucht. In jeder Gruppe waren je I2 bis I8 Tiere. Die erfindungsgemässe Verbindung und γ -Amino- β - -phenylbuttersäurehydrochlorid wurden intraperitoneal in Dosen von 75 mg/kg bzw. 48 mg/kg zweimal am Tag eingeführt. Es wurden die Körpermasse, der Einfluss auf die motorische Aktivität (im Aktometer) und auf die emotionelle Reaktivität aud dem Wege der elektrischen Schmerzreizung untersucht. Die Tiere wurden innerhalb von 15 bis 20 Tagen untersucht. […] Der sedative Effekt der beanspruchten Verbindung war während der ganzen Versuchsperiode aufrechterhalten (Tabelle 7).

Ratten [2] = assay: Hypoxia by subcutaneous Natriumnitroprussid, survival, rats; format: in vivo; conditions: Natriumnitroprussid 20 mg/kg s.c.
Protocol: (§3) Die […] Hypoxie wurde durch die subkutane Einführung von Natriumnitroprussid in einer Dosis von 20 mg/kg den Gruppen von Mäusen und Ratten zu I0 Stück in der Gruppe erzeugt. Natriumnitroprussid wurde 60 min nach der Einführung der Prüfverbindungen verabreicht. Die Angaben sind in Tabelle I5 (für Mäuse) und I6 (für Ratten) angeführt.

Mäuse [3] = assay: Hypoxia by subcutaneous Natriumnitroprussid, survival, mice; format: in vivo
Protocol: as §3

Ratten [4] = assay: Thresholds of emotional reactivity and aggressiveness on electric pain stimulation, rats; format: in vivo
[5] = Habituation study: body mass; format: in vivo, Mäuse; conditions: 75 mg/kg bzw. 48 mg/kg i.p. twice daily, 15 to 20 days
Protocol: as §2

Ratten [6] = assay: Cold stress at 2°C, rectal temperature, rats; format: in vivo; conditions: for Rektaltemperatur nach I Stunde an der Kälte: 2°C; for Rektaltemperatur nach I Stunde: 1 h after dosing at room temperature
Protocol: Aus den in Tabellen angeführten Ergebnissen ist zu ersehen, dass die einmalige Einführung der neuen Verbindung die Schwimmdauer der Mäuse und Ratten wesentlich nicht beeinflusst. Nach der 20 Tage langen chronischen Einführung der neuen Verbindung wird die Schwimmdauer hingegen zuverlässig grösser - (Tabelle I7) um das I,5fache im kalten Wasser und um das 2,5fache bei einer Temperatur von 40°C (Tabelle I9) im Vergleich zu γ -Amino- β -phenylbuttersäurehydrochlorid. Auf diese Weise erhöht die chronische Einführung der neuen Verbindung wesentlich die physische Toleranz der Tiere. Ausserdem wurde auch die Toleranz der Tiere gegen den Kältestress bestimmt. Die Untersuchung wurde bei einer Temperatur von 2°C an Mäusen und Ratten durchgeführt, indem jedes Tier abgesondert in der Einzelkammer von I5 x 20 x 20 cm Ausmass untergebracht wurde. Es wurde die Rektaltemperatur vor der Einführung der neuen Verbindung, des γ -Amino- β - phenylbuttersäurehydrochlorids und der physiologischen Kontrollösung eine Stunde nach der Einführung bei Zimmertemperatur und nach I Stunde und 2 Stunden in der Kälte gemessen. Die Versuche wurden an einer Mäusengruppe (I0 Stück) (Tabelle 20) und an einer Rattengruppe (8 Stück) (Tabelle 2I) bei der einmaligen und chronischen Einführung innerhalb von 22 bzw. I6 Tagen einmal pro Tag angestellt.

Mäuse [7] = assay: Habituation study: motor activity in actometer on repeated dosing; format: in vivo
Protocol: as §2

Mäuse [8] = assay: Motor and orientation activity in photoelectric actometer; format: in vivo; conditions: counted 60 min from 10 min after dosing
Source text: Zur Bestimmung der sedativen Wirksamkeit wurde die motorische und Orientierungsaktivität und die motorische Fähigkeit in Versuchen an Mäusen und Ratten untersucht.
Den Versuchstieren wurden die beanspruchte Verbindung, γ -Amino- β -phenylbuttersäurehydrochlorid und Pyrazetam eingeführt. Als Kontrolle diente die physiologische Lösung (0,9%ige NaCl-Lösung). Die Untersuchungen wurden an I0 bis I2 erwachsenen Tieren (Mäuse, Ratten) durchgeführt.
Bei der Bestimmung der motorischen und Orientierungsaktivität wurde jede Maus in einer Einzelkamner des photoelektrischen Aktometers untergebracht. Die motorische und Orientierungsaktivität wurde nach der Zahl der Impulse bestimmt, die beim Berühren der Aktometerkontakte durch das Tier entstanden. Das Zählen der Im pulse wurde I0 min nach der intraperitonealen Einführung der genannten Verbindungen begonnen und dauerte innerhalb von 60 min. Die Angaben sind in der Tabelle I angeführt.

Mäuse [9] = assay: Thresholds of emotional reactivity and aggressiveness on electric pain stimulation, mice; format: in vivo
Source text: Es wurde auch die emotionelle Aktivität und Aggressivität der Tiere auf dem Wege der elektrischen Schmerzreizung untersucht.
as §1

Ratten [10] = assay: Swimming test at 2°C, rats; format: in vivo
Source text: Der Einfluss der beanspruchten Verbindung auf die physische Toleranz der Tiere wurde nach dem Schwimmtest der Mäuse und Ratten untersucht. Die Versuche wurden in einer Wanne von […] Fläche durchgeführt. Die Tiergruppe (8 bis I0 Mäuse oder Ratten) wurde ins Wasser gebracht und es wurde die Zeit der Schwimmfähigkeit bestimmt. Die neue Verbindung und γ -Amino- β - -phenylbuttersäurehydrochlorid wurden enteral und intraperitoneal I Stunde oder 3 Stunden vor dem Schwimmbeginn eingeführt. Die Untersuchung wurde sowohl nach der einmaligen als auch nach der chronischen (innerhalb von 20 Tagen einmal täglich) Einführung der genannten Verbindungen durchgeführt. Die Versuche wurden bei 3 Temperaturen angestellt: 2°C (Tabelle I7), 25°C (Tabelle I8) und 40°C (Tabelle I9).

Mäuse [11] = assay: Natriumäthaminal intoxication, sleep duration, mice; format: in vivo
Protocol: Ausserdem wurde die Wirkung der beanspruchten Verbindung auf die durch Natriumäthaminal erzeugte Intoxikation untersucht. Die Versuche wurden an männlichen Mäusen und Ratten in Gruppen zu 8 bis I0 Tieren angestellt. Natriumäthaminal wurde intraperitoneal in einner Dosis von I00 mg/kg I5 min nach der enteralen Verabreichung der beanspruchten Verbindung oder der Kontrollarzneimittel eingeführt. Es wurde die einmalige und chronische Einwirkung (während I2 bis I4 Tage einmal täglich) von der neuen Verbindung, γ -Amino- β - -phenylbuttersäurehydrochlorid und Pyrazetam untersucht. Es wurde die Dauer der Seitenlage - des Schlafs der Tiere bestimmt. Die Ergebnisse dieser Untersuchung sind in Tabelle 23 (für Mäuse) und 24 (für Ratten) angeführt.

[12] = day 1, 48 mg/kg i.p. twice daily
[13] = day 5, 48 mg/kg i.p. twice daily
[14] = day 10, 48 mg/kg i.p. twice daily
[15] = day 15, 48 mg/kg i.p. twice daily
[16] = day 1, 75 mg/kg i.p. twice daily
[17] = day 5, 75 mg/kg i.p. twice daily
[18] = day 10, 75 mg/kg i.p. twice daily
[19] = day 15, 75 mg/kg i.p. twice daily

NCC(CC(=O)O)c1ccccc1 (stereo not drawn) [γ-Amino-β-phenylbutter-säurehydrochlorid, γ -Amino- β -phenylbuttersäurehydrochlorid, reference compound]
Spannung in V, die Schwelle der Aggressivität (Mäuse [1]; [12]): 29±2 V | Spannung in V, die Schwelle der emotionellen Reaktivität (Mäuse [1]; [12]): 24±2 V | Spannung in V, die Schwelle der Aggressivität (Mäuse [1]; [13]): 27±4 V | Spannung in V, die Schwelle der emotionellen Reaktivität (Mäuse [1]; [13]): 23±2 V | Spannung in V, die Schwelle der Aggressivität (Mäuse [1]; [14]): 26±3 V | Spannung in V, die Schwelle der emotionellen Reaktivität (Mäuse [1]; [14]): 20±2 V | Spannung in V, die Schwelle der Aggressivität (Mäuse [1]; [15]): 24±2 V | Überlebensdauer (Ratten [2]; 35 mg/kg chronic, 10 days once daily): 876,6±90 sec | Überlebensdauer (Ratten [2]; 35 mg/kg single): 1359,0±100 sec | Überlebensdauer (Mäuse [3]; Natriumnitroprussid 20 mg/kg s.c., 35 mg/kg chronic, 10 days once daily): 515,6±34 sec | Spannung in V, die Schwelle der Aggressivität (Ratten [4]; 80,0 mg/kg): 44,6±0,6 V | Körpermasse [5]: veränderte sich wesentlich nicht | Rektaltemperatur nach I Stunde an der Kälte (Ratten [6]; 35 mg/kg chronic, 16 days): 23,2±0,2 | Rektaltemperatur nach I Stunde (Ratten [6]; 35 mg/kg chronic, 16 days): 30,4±0,3 | Anzahl der Impulse im Aktometer innerhalb von 45 min (Mäuse [7]; [12]): 75±19 | Anzahl der Impulse im Aktometer innerhalb von 45 min (Mäuse [7]; [13]): 223±36 | Anzahl der Impulse im Aktometer innerhalb von 45 min (Mäuse [7]; [14]): 257±38 | Anzahl der Impulse im Aktometer innerhalb von 45 min (Mäuse [7]; [15]): 283±47 | Anzahl der Impulse im Aktometer (Mäuse [8]; 16 mg/kg i.p.): 368±51 | Anzahl der Impulse im Aktometer (Mäuse [8]; 32 mg/kg i.p.): 238±28 | Anzahl der Impulse im Aktometer (Mäuse [8]; 40 mg/kg i.p.): 158±21 | Spannung in V, Schwelle der emotionellen Reaktivität (Mäuse [9]; 100 mg/kg): 24,2±0,8 V | Schwimmzeit, Ratten (Ratten [10]; 35 mg/kg chronic, 20 days): 328,8±34 | Schwimmzeit, Ratten (Ratten [10]; 35 mg/kg single): 304,3±29 | Schlafdauer (Mäuse [11]; 35 mg/kg chronic, 12 days + Natriumäthaminal 100 mg/kg i.p.): 390,0±37 min | Schlafdauer (Mäuse [11]; 35 mg/kg single + Natriumäthaminal 100 mg/kg i.p.): 274,3±32 min

γ -Amino- β -phenylbuttersäureorotat [Erfindungsgemässe Verbindung]
Spannung in V, die Schwelle der Aggressivität (Mäuse [1]; [16]): 30±3 V | Spannung in V, die Schwelle der emotionellen Reaktivität (Mäuse [1]; [16]): 22±2 V | Spannung in V, die Schwelle der Aggressivität (Mäuse [1]; [17]): 29±2 V | Spannung in V, die Schwelle der emotionellen Reaktivität (Mäuse [1]; [17]): 23±2 V | Spannung in V, die Schwelle der Aggressivität (Mäuse [1]; [18]): 29±2 V | Spannung in V, die Schwelle der emotionellen Reaktivität (Mäuse [1]; [18]): 24±3 V | Spannung in V, die Schwelle der Aggressivität (Mäuse [1]; [19]): 34±3 V | Spannung in V, die Schwelle der emotionellen Reaktivität (Mäuse [1]; [19]): 22±2 V | Überlebensdauer (Ratten [2]; 50 mg/kg chronic, 10 days once daily): 1133,0±54 sec | Überlebensdauer (Ratten [2]; 50 mg/kg single): 1247,0±94 sec | Überlebensdauer (Mäuse [3]; Natriumnitroprussid 20 mg/kg s.c. 60 min after compound, 50 mg/kg single): 740,3±68 sec | Überlebensdauer (Mäuse [3]; Natriumnitroprussid 20 mg/kg s.c., 50 mg/kg chronic, 10 days once daily): 1083,7±80 sec | Spannung in V, die Schwelle der emotionnellen Reaktivität (Ratten [4]; 20,0 mg/kg): 23,4±0,8 V | Spannung in V, die Schwelle der emotionnellen Reaktivität (Ratten [4]; 40,0 mg/kg): 27,6±0,4 V | Spannung in V, die Schwelle der Aggressivität (Ratten [4]; 60,0 mg/kg): 44,8±0,6 V | Spannung in V, die Schwelle der emotionnellen Reaktivität (Ratten [4]; 150,0 mg/kg): 34,2±2,2 V | Körpermasse [5]: veränderte sich wesentlich nicht | Rektaltemperatur vor der Einführung der Verbindung (Ratten [6]; 50 mg/kg chronic, 16 days): 30,7±0,2 | Rektaltemperatur nach I Stunde an der Kälte (Ratten [6]; 50 mg/kg chronic, 16 days): 27,0±0,3 | Rektaltemperatur vor der Einführung der Verbindung (Ratten [6]; 50 mg/kg single): 30,4±0,3 | Rektaltemperatur nach I Stunde (Ratten [6]; 50 mg/kg single): 30,9±0,3 | Anzahl der Impulse im Aktometer innerhalb von 45 min (Mäuse [7]; [16]): 125±25 | Anzahl der Impulse im Aktometer innerhalb von 45 min (Mäuse [7]; [17]): 108±21 | Anzahl der Impulse im Aktometer innerhalb von 45 min (Mäuse [7]; [18]): 109±47 | Anzahl der Impulse im Aktometer innerhalb von 45 min (Mäuse [7]; [19]): 123±17 | Anzahl der Impulse im Aktometer (Mäuse [8]; 25 mg/kg i.p.): 322±43 | Anzahl der Impulse im Aktometer (Mäuse [8]; 50 mg/kg i.p.): 208±27 | Anzahl der Impulse im Aktometer (Mäuse [8]; 75 mg/kg i.p.): 123±18 | Spannung in V, Schwelle der Agressivität (Mäuse [9]; 37 mg/kg): 29,8±2,4 V | Schwimmzeit, Ratten (Ratten [10]; 30 mg/kg chronic, 20 days): 390,0±56 | Schlafdauer (Mäuse [11]; 50 mg/kg chronic, 12 days + Natriumäthaminal 100 mg/kg i.p.): 178,4±14 min | Schlafdauer (Mäuse [11]; 50 mg/kg single + Natriumäthaminal 100 mg/kg i.p.): 261,3±21 min
